A word on the IC50: it is the concentration that gives 50% inhibition.

The test system of the experiment is S. cerevisiae tim23-1 mutant growth, luminescence. Put plainly: tim23-1 mutant yeast growth inhibitors, dose response, luminescence, uHTS hits (AID 493002).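 Further: yeast grown roughly 22 hours at 25 °C before the luminescence read.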

Turning to `COc1ccc(-c2cc(-c3ccccc3)n[nH]2)c(O)c1`, the IC50 was 18.3 µM. In the case of `N#C/C(C(N)=O)=c1/ccc2c(c1)N1C3=C(CCCC3)CC3CCCCC31N=2` (configuration not stated), the IC50 was 7.43 µM.

Consider `CCCC(=O)NC(c1ccc(C(C)C)cc1)c1ccc2cccnc2c1O` (configuration not stated), for which the IC50 was 7.2 µM. Turning to `COc1ccc(-c2cc(-c3ccccc3O)[nH]n2)cc1`, the IC50 is 9.38 µM. The value for `N#C/C(=C\c1ccc(Cl)cc1)C(=O)NC1CC1` was 7.09 µM. The value for `COC(=O)c1c(-c2ccc(S(C)(=O)=O)cc2)sc2ccc(OC)cc12` was 12 µM; that for `O=C(Nc1ccc(F)c([N+](=O)[O-])c1)c1cccs1` was 15.3 µM; that for `O=C(NCCCc1ccccc1)Nc1cccc(Cl)c1` was 9.3 µM. For `COC(=O)c1ccc(NC(=O)CSc2nc(=O)n3cccc(C)c3n2)cc1`, the IC50 was 22.7 µM. In the case of `Cc1ccc2nc(N3C(=O)CNC3=S)sc2c1`, the IC50 is 3.73 µM. `Cc1ccc(-c2nc3n(n2)Cc2ccccc2-3)cc1`: the IC50 is 15.4 µM. Consider `C/C(=N\Nc1ccc([N+](=O)[O-])cc1)c1ccc(O)cc1`, for which the IC50 is 5.17 µM. Take `O=C(N/N=C/c1cccc(F)c1)c1csc2c1CCCC2`: the IC50 is 11.4 µM. With `O=C(Nc1ccc(Cl)cc1)c1cccs1`, the IC50 is 11 µM. For `Cc1nc2ccc(NC(=O)c3cccs3)cc2c(=O)n1Cc1ccc(Cl)cc1`, the IC50 was 12 µM. As to `CC1(C)CC(=O)C=C(c2cccc(Cl)c2O)C1`, the IC50 was 8.1 µM. The value for `Cc1ccc(-c2nnc(NC3CCCC3)s2)cc1` was 26.6 µM. Take `Cc1occc1C(=O)N/N=C/C(Br)=C\c1ccccc1`: the IC50 is 13.7 µM. Take `Cc1ccc2occ(/C=N/NC(=O)c3ccncc3)c(=O)c2c1`: the IC50 is 21.6 µM. For `Brc1ccc(-n2cnc(-c3ccccc3)c2)cc1`, the IC50 is 12.5 µM. For the compound `Cc1ccc(Nc2ccc([N+](=O)[O-])nc2[N+](=O)[O-])cc1`, the IC50 was 44.3 µM. For `O=C(Nc1ccc(Br)c(Cl)c1)c1ccco1` the value was 18.4 µM; for `O=Cc1cccnc1SCc1ccccc1`, 12.6 µM. Consider `Cc1ccc(C(=O)NC2=NCCS2)cc1Cl`, for which the IC50 is 16.6 µM. The value for `COc1ccc2c(c1)sc1nc(-c3ccccc3)cn12` was 6.68 µM; that for `O=C(Nc1cn(-c2ccccc2)nc1-c1cccs1)c1ccco1` was 29 µM. For the compound `COc1ccc(S(=O)(=O)NCc2ccc(C)cc2)cc1`, the IC50 is 20.5 µM. As for `O=C(N/N=C/c1coc2ccc(Cl)cc2c1=O)c1ccncc1`, the IC50 is 22.3 µM. As for `CN1CCc2nc3sc(C(=O)C45CC6CC(CC(C6)C4)C5)c(N)c3cc2C1`, the IC50 is 2.43 µM. `Cc1ccc(S(=O)(=O)N2C(=O)[C@@H]3Cc4ccccc4CN3C2=O)cc1`: the IC50 was 30.5 µM. Turning to `CCCCC(=O)NC(c1ccc(Cl)cc1)c1ccc2cccnc2c1O` (configuration not stated), the IC50 was 9.68 µM. For `N=C1/C(=C\c2coc3ccccc3c2=O)C(=O)N=C2SC=CN12`, the IC50 was 8.9 µM. With `CC1(C)OC(=O)C(=Cc2ccc[nH]2)C(=O)O1`, the IC50 is 8.73 µM. The value for `COc1cc2c3c(c1)C(C)=CC(C)(C)N3C(=O)C2=O` was 8.81 µM; that for `CC1(C)CC(n2c(NCCO)nc3c(c2=O)C2(CCCC2)Cc2ccccc2-3)CCO1` (configuration not stated) was 8.62 µM. With `Cc1ccn2cc(-c3ccc(NC(=O)c4ccco4)cc3)nc2c1`, the IC50 is 17.6 µM.

As to `COCCNC(=O)/C(C#N)=C/c1ccc(OCc2ccc(F)cc2)cc1`, the IC50 was 10.5 µM. For the compound `Oc1ccc(/C=N/Nc2cccc(Cl)n2)c(O)c1`, the IC50 is 10.6 µM. As to `Cc1ccc(NCc2nc3ccccc3n2CCOc2ccccc2)cc1`, the IC50 was 10.4 µM. For the compound `COc1cc2ccccc2cc1C(=O)Nc1ccc(C)cc1`, the IC50 is 12.5 µM. For `O=C(N/N=C/c1cccs1)c1cc(-c2cccc3ccccc23)n[nH]1` the value was 28 µM; for `CC1(C)CC2CC(C)(CN2C(=O)c2cc(-c3ccc(O)cc3)on2)C1` (configuration not stated), 15.3 µM; for `O=C(/C=C/c1ccccc1)Nc1ccc2c(c1)OCCO2`, 11.7 µM. For `COc1ccc(NC(=O)Nc2nc3c(s2)CCCC3)cc1` the value was 7.73 µM; for `Oc1ccc(Br)cc1/C=N/Nc1ccccn1`, 6.87 µM; for `O=S1(=O)N[C@@H](Cc2ccccc2)COc2cc(Br)ccc21`, 18.4 µM.

Turning to `O=C(Nc1cccc(NC(=O)c2ccco2)c1)c1cccc(Br)c1`, the IC50 was 13.1 µM.

Turning to `Cc1cccc(C(=O)OCC(=O)NC23CC4CC(CC(C4)C2)C3)c1O`, the IC50 is 12.5 µM. For `COc1ccc2c(=O)c3c(=O)n(Cc4ccco4)c(-c4ccc(C)cc4)nc3oc2c1` the value was 20 µM; for `COc1ccccc1-c1cc(C(=O)N/N=C/c2ccc(C)s2)c2ccccc2n1`, 18.8 µM; for `O=C(CSc1cccc[n+]1[O-])Nc1ccccc1Oc1ccccc1`, 3.98 µM. On to `CCC1CCc2sc(C(=O)N(C)CC(=O)Nc3ccc(OC)cc3)cc2C1` (configuration not stated), for which the IC50 is 19.5 µM. On to `O=C(Nc1ccc(-c2ccc(N3CCCCC3)nn2)cc1)c1ccco1`, for which the IC50 is 10 µM.

`Nc1ccc(/C=C/C(=O)c2cccs2)cc1`: the IC50 is 4.31 µM. Turning to `Cc1ccc(NC(=S)NC(=O)C2CC2)cc1Cl`, the IC50 was 6.85 µM. For the compound `CC(C)Oc1cc(O)c2c(=O)c(-c3ccc(O)cc3)coc2c1`, the IC50 was 7.38 µM. For `Cc1csc2nc(O)c(C(=O)NCCCc3ccccc3)c(=O)n12`, the IC50 is 7.87 µM. Consider `O=[N+]([O-])c1ccc(N/N=C/c2cccc(O)c2)cc1`, for which the concentration for half-maximal inhibition (IC50) is 6.99 µM.

As to `O=C(Nc1ccc(F)c(Cl)c1)C1CC2CCC1C2` (configuration not stated), the IC50 was 21.6 µM. Regarding `CCOC(=O)c1c(NC(=O)CSc2nnnn2-c2ccc(OC)cc2)sc(C)c1C`, the IC50 was 4.12 µM.

Turning to `Cc1oc2cc(O)cc(O)c2c(=O)c1-c1ccc2c(c1)OCCCO2`, the IC50 was 8.84 µM. For `N=c1c2c(-c3ccccc3)c(-c3ccccc3)n(Cc3ccco3)c2ncn1Cc1ccccc1` the value was 10.9 µM; for `Cc1ccnc(NC(=O)c2ccc3c(c2)C(=O)N(CC(C)C)C3=O)c1`, 13 µM; for `Cc1ccc2[nH]c3ccccc3c(=O)c2c1`, 13.6 µM. In the case of `Nc1ccc2nc(SCc3cccc(F)c3)sc2c1`, the 50% inhibitory concentration (IC50) is 13.9 µM. For the compound `OCCCNc1cc(-c2ccccc2)nc2cc(-c3ccc(F)cc3)nn12`, the IC50 was 33.3 µM. Consider `O=C(Nc1ccc2nc(-c3ccccc3)[nH]c2c1)c1cccs1`, for which the IC50 is 3.62 µM.

For `O=C(N/N=C/c1coc2ccc(Cl)cc2c1=O)c1cc(O)cc(O)c1`, the IC50 is 5.83 µM. Regarding `CCN(CC)c1ccc(/C=C2/C(=O)ON=C2C)cc1`, the IC50 was 14.6 µM.

Turning to `O=C(Nc1ccc2oc(Cc3ccc(Cl)cc3)nc2c1)c1cccnc1`, the IC50 is 14.2 µM. For `O=C(CC(=O)c1c(F)cccc1Cl)c1ccccc1O`, the IC50 was 15.7 µM. The value for `Cc1ccc(Nc2nc(-c3sc(N)nc3C)cs2)cc1` was 13.4 µM. Take `Cc1ccc2occ(/C=N/NC(=O)c3ccccc3Br)c(=O)c2c1`: the 50% inhibitory concentration (IC50) is 9.7 µM. The value for `O=C(Nc1ccc(OC(F)(F)F)cc1)N1CCN(c2ccnc3cc(Cl)ccc23)CC1` was 10.5 µM; that for `N#Cc1c(NC(=O)C2CC2)sc2c1CCCCC2` was 14.6 µM. On to `Cc1[nH][nH]c(=O)c1C(c1ccc(-c2ccc(Cl)cc2)o1)c1c(C)[nH][nH]c1=O`, for which the IC50 is 12.8 µM.

With `COc1cccc(Nc2nc3ccc(OC)cc3s2)c1`, the IC50 was 10.1 µM.

These data come from PubChem BioAssay AID493002 (Sanford-Burnham Center for Chemical Genomics, 2010).
